From patent US20230212129A1, “QUINAZOLINE DERIVATIVES USEFUL AS SELECTIVE HDAC6 INHIBITORS” (AnnJi Pharmaceutical Co., Ltd., priority 2020, published 2023)

Legend:
[1] = molecular target: T1, HDAC6 (Homo sapiens, UniProt Q9UBN7); experiment: HDAC6 activity, acetylated-AMC-labeled peptide substrate; type: biochemical
T1 construct: GST (N); host or cells: baculovirus expression system, Sf9 insect cells
T1 sequence (Q9UBN7 1-1215): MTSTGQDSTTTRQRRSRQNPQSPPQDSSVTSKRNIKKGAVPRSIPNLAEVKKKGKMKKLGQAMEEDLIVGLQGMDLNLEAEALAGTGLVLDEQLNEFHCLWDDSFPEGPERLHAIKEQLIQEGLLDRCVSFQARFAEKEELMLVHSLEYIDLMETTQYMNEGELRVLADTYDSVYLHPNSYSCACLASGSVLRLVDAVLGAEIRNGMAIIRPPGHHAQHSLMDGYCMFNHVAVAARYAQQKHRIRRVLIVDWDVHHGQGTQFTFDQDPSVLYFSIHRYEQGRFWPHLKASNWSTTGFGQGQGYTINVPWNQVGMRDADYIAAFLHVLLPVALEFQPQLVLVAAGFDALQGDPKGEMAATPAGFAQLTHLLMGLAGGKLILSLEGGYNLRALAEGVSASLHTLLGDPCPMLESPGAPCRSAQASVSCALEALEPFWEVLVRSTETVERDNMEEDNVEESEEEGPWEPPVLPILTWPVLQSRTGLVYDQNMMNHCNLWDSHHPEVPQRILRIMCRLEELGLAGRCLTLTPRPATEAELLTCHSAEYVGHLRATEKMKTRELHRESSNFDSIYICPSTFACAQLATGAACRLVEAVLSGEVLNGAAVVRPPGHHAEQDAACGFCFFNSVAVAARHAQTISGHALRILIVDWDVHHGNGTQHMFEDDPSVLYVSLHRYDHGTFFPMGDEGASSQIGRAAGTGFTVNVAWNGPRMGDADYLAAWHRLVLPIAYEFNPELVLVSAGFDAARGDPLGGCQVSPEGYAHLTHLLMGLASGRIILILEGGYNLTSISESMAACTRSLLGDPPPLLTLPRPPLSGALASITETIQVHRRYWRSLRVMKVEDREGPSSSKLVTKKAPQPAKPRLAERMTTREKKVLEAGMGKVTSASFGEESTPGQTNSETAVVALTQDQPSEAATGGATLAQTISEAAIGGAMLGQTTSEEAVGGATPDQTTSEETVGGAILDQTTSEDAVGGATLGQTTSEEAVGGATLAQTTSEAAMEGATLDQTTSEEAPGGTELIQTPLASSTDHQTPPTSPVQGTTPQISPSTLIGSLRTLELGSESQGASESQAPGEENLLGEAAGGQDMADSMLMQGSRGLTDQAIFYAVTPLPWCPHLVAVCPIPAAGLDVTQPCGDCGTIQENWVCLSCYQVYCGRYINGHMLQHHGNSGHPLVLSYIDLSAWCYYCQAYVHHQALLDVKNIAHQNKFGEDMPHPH
Description: The activities of HDAC 1 and 6 were measured by using an acetylated-AMC-labeled peptide substrate, a fluorogenic peptide from p53 residues 379-382 (RHIKKAc). The proteins involved in the assay are as the followings (1) Human HIDAC1 (Genflank Accession No. NM_004964): Full length with C-terminal GST tag, MW=79.9 kDa, expressed by baculovirus expression system in SP9 cells; and (2) Human HIDAC6 (Genflank Accession No. BC069243): Full length with N-terminal GST tag, MW=159 kDa, expressed by baculovirus expression system in Sf9 cells.

[2] = Oral pharmacokinetics (Table II); parameters: AUC: concentration or dose not given beside the values; settings: in vivo
[3] = tested on: acetylated α-tubulin (Ac-α-tub); experiment: Western blot of acetylated α-tubulin in primary DRG cells; type: cell-based, C57BL/6J mice; settings: 48 hours of treatment, FIG. 2
Description: To investigate the effect of HDAC6 inhibitors in neuron protection and neuron regeneration, the recovery of dorsal root ganglion (DRG) cells post-paclitaxel injury was tested. Dorsal root ganglion was extracted from 7 week-old female C57BL/6J mice and incubated with HDAC6 inhibitors (compounds COMPOUND 33, COMPOUND 34, or COMPOUND 2) at the concentrations of 0.1 μM and 1 μM, or 100 ng/ml of BDNF, a neuronal growth factor (positive control), for 24 hours prior to a 24-hour incubation of 0.1 μM paclitaxel.

[4] = tested on: bleomycin-induced pulmonary fibrosis; experiment: Bleomycin-induced pulmonary fibrosis model, lung histology (H&E); type: in vivo, mice
Description: The activities of compounds COMPOUND 2 and COMPOUND 33 in preventing and/or treating pulmonary fibrosis were examined using a bleomycin-induced pulmonary fibrosis model, a model that involves deactivated bleomycin hydrolase, elevated oxidative stress, and increased inflammatory cytokines. In the prevention model, mice were administered bleomycin intratracheally an hour in prior to the first oral administration of 30 mg/kg testing compounds. The treatment continued for 21 consecutive days, and mice were sacrificed to examine histological changes of lung tissues were analyzed by H&E staining to evaluate the degree of lung fibrosis. Additionally, the HDAC6 inhibitors, COMPOUND 2 and COMPOUND 33, were tested for their effect in aiding animal recovery from lung injury and pulmonary fibrosis post injury.

[5] = tested on: Rat DRG cells; experiment: Cisplatin-induced neurite degeneration in DRG cells; type: cell-based; settings: 0.3 μM with 0.5 mM cisplatin, 48 hours; p<0.05; FIG. 3
Description: Rat DRG cells were used to investigate the protective effect of HDAC6 inhibitors. DRG cells were treated with 0.5 mM of cisplatin with or without 0.3 μM of COMPOUND 2 or ACY1215 for 48 hours. The neurite area and the number of blebs (cell apoptosis) per image were calculated and their ratio values among the tested groups were compared and shown in FIG. 3.

- HDAC6 selectivity (A)/(B) ([1]; HDAC1 IC50 / HDAC6 IC50): 2585
- IC50 ([1]; read-out: HDAC6 IC50 (B)): 2 nM
- Cmax [2]: 1150 ng/mL
- AUC ([2]; unit inferred): 12500 ng·h/mL
Compound: CCc1nc2cc(F)c(/C=C/C(=O)NO)cc2c(=O)n1-c1c(C)cccc1C [Compound 2, (E)-3-(3-(2,6-dimethylphenyl)-2-ethyl-7-fluoro-4-oxo-3,4-dihydroquinazolin-6-yl)-N-hydroxyacrylamide]
- tubulin hyperacetylation [3]: tubulin hyperacetylation
- development of lung fibrosis ([4]; prevention model, 30 mg/kg oral, 21 consecutive days, FIG. 5): markedly decreased the development of lung fibrosis
- recovery from lung injury and pulmonary fibrosis post injury ([4]; treatment post injury): protective effect in pulmonary inflammatory response and pulmonary fibrosis
- neurite degeneration (neurite area and number of blebs ratio) [5]: significantly lesser degree of neurite degeneration
